Results published in ChEMBL document CHEMBL6096669, “Design and synthesis of novel derivatives of bisepoxylignans as potent anti-inflammatory agents involves the modulation of the M1/M2 microglia phenotype via TLR4/NF-κB signaling pathway” (Eur J Med Chem, 2025).
Calls of active or inactive are those of the source. No cut-off for these calls is given here.

Assays:
[1] = Cytotoxicity against mouse BV-2 cells assessed as cell viability at 10 uM measured after 24 hrs by MTT assay relative to control; assay type: toxicity, cell-based; conditions: read-out: Activity
[2] = (§1) Inhibition of LPS-induced NO production in mouse BV-2 cells at 10 uM measured after 24 hrs followed by induced with LPS for another 24 hrs by ELISA relative to control; assay type: functional
[3] = test system: BV-2; test: as §1; assay type: functional
[4] = Permeability of compound in PBS/EtOH (70:30) buffer incubated for 18 hrs by PAMPA-BBB assay
[5] = test system: BV-2; test: Anti-inflammatory activity against LPS-induced mouse BV-2 cells assessed as decrease in LPS-induced Cyclooxygenase-2 mRNA expression at 20 uM incubated for 4 hrs followed by LPS induced for 12 hrs by RT-PCR analysis relative to control; assay type: functional, cell-based; conditions: time 16.0 hrs

O=c1[nH]c2ccc(Nc3ncnc4c3cnn4Cc3cc(F)cc(Cl)c3)cc2[nH]1
viability at 24 h, 10 µM [1]: 92.9% | inhibition at 10 µM [2]: 61.7%

O=c1[nH]c2ccc(Nc3ncnc4c3ccn4Cc3ccc(F)cc3Cl)cc2o1
viability at 24 h, 10 µM [1]: 85.7% | inhibition at 10 µM [2]: 54.3%

O=c1[nH]c2ccc(Nc3ncnc4c3ccn4Cc3cccc(Cl)c3F)cc2[nH]1
viability at 24 h, 10 µM [1]: 73% | inhibition [3]: inactive

COc1cc(Cn2ccc3c(Nc4ccc5c(c4)OCO5)ncnc32)cc(OC)c1
viability at 24 h, 10 µM [1]: 93.2% | inhibition at 10 µM [2]: 70.2%

COc1cc(Cn2ccc3c(Nc4ccc5[nH]c(=O)oc5c4)ncnc32)cc(OC)c1
viability at 24 h, 10 µM [1]: 59.3% | inhibition [3]: inactive

COc1cc(Cn2ccc3c(Nc4ccc5c(c4)CC(=O)N5)ncnc32)cc(OC)c1
viability at 24 h, 10 µM [1]: 53% | inhibition [3]: inactive

COc1ccc(Cn2ccc3c(Nc4ccc5[nH]c(=O)[nH]c5c4)ncnc32)cc1OC
viability at 24 h, 10 µM [1]: 75.2% | inhibition [3]: inactive

O=c1[nH]c2ccc(Nc3ncnc4c3ccn4Cc3ccc(I)cc3)cc2[nH]1
viability at 24 h, 10 µM [1]: 98.7% | inhibition at 10 µM [2]: 74.5%

O=c1[nH]c2ccc(Nc3ncnc4c3cnn4Cc3cc(Cl)cc(Cl)c3)cc2[nH]1
viability at 24 h, 10 µM [1]: 52.2% | inhibition [3]: inactive

O=c1[nH]c2ccc(Nc3ncnc4c3ccn4Cc3ccc(Cl)c(F)c3)cc2[nH]1
viability at 24 h, 10 µM [1]: 83.1% | inhibition at 10 µM [2]: 103%

Fc1ccc(Cn2ccc3c(Nc4ccc5c(c4)OCO5)ncnc32)c(Cl)c1
viability at 24 h, 10 µM [1]: 96.9% | inhibition at 10 µM [2]: 46.8%

O=c1[nH]c2ccc(Nc3ncnc4c3ccn4Cc3cc(Cl)ccc3F)cc2[nH]1
viability at 24 h, 10 µM [1]: 70.3% | inhibition [3]: inactive

CCn1cc(C(=O)O)c(=O)c2cc(F)c(N3CCNCC3)nc21 [ENOXACIN]
log Pe [4]: -6.24

O=c1[nH]c2ccc(Nc3ncnc4c3ccn4Cc3c(Cl)cccc3Cl)cc2[nH]1
viability at 24 h, 10 µM [1]: 57.6% | inhibition [3]: inactive

O=c1[nH]c2ccc(Nc3ncnc4c3ccn4Cc3cc(C(F)(F)F)cc(C(F)(F)F)c3)cc2[nH]1
viability at 24 h, 10 µM [1]: 58.5% | inhibition [3]: inactive

O=c1[nH]c2ccc(Nc3ncnc4c3ccn4Cc3cccc4cccnc34)cc2[nH]1
viability at 24 h, 10 µM [1]: 84.7% | inhibition at 10 µM [2]: 43.8%

O=c1[nH]c2ccc(Nc3ncnc4c3ccn4Cc3cc(F)ccc3F)cc2[nH]1
viability at 24 h, 10 µM [1]: 50.7% | inhibition [3]: inactive

Cn1ncc2cc(Nc3ncnc4c3ccn4Cc3ccc(F)cc3Cl)ccc21
viability at 24 h, 10 µM [1]: 79.2% | inhibition [3]: inactive

O=c1[nH]c2ccc(Nc3ncnc4c3ccn4Cc3c(F)cccc3Cl)cc2[nH]1
viability at 24 h, 10 µM [1]: 77.2% | inhibition [3]: inactive

O=c1[nH]c2ccc(Nc3ncnc4c3ccn4Cc3cc(F)cc(Cl)c3)cc2[nH]1
viability at 24 h, 10 µM [1]: 104% | inhibition at 10 µM [2]: 45.7%

O=c1[nH]c2ccc(Nc3ncnc4c3ccn4Cc3ccc(Cl)cc3F)cc2[nH]1
viability at 24 h, 10 µM [1]: 72.1% | inhibition [3]: inactive

COc1cc(Cn2ccc3c(Nc4ccc5cn[nH]c5c4)ncnc32)cc(OC)c1
viability at 24 h, 10 µM [1]: 118% | inhibition at 10 µM [2]: 77.7%

O=c1[nH]c2ccc(Nc3ncnc4c3cnn4Cc3cccc(Cl)c3F)cc2[nH]1
viability at 24 h, 10 µM [1]: 53.3% | inhibition [3]: inactive

Fc1ccc(Cn2ccc3c(Nc4ccc5scnc5c4)ncnc32)c(Cl)c1
viability at 24 h, 10 µM [1]: 61.7% | inhibition [3]: inactive

COc1ccc(Cn2ccc3c(Nc4ccc5[nH]c(=O)[nH]c5c4)ncnc32)cc1
viability at 24 h, 10 µM [1]: 115% | inhibition at 10 µM [2]: 76.6%

O=C(Cn1ccc2c(Nc3ccc4[nH]c(=O)[nH]c4c3)ncnc21)N1CCOCC1
viability at 24 h, 10 µM [1]: 102% | inhibition at 10 µM [2]: 54.3%

COc1cc(Cn2ccc3c(Nc4ccc5[nH]c(=O)[nH]c5c4)ncnc32)cc(OC)c1
viability at 24 h, 10 µM [1]: 107% | inhibition at 10 µM [2]: 42.5%

COc1ccc2c3c1O[C@H]1C[C@@H](O)C=C[C@@]31CCNC2
Activity [5]: Active | viability at 24 h, 10 µM [1]: 91.2% | inhibition at 10 µM [2]: 55.7%

Cc1ccccc1Cn1ccc2c(Nc3ccc4[nH]c(=O)[nH]c4c3)ncnc21
viability at 24 h, 10 µM [1]: 81.8% | inhibition at 10 µM [2]: 63.5%

O=c1[nH]c2ccc(Nc3ncnc4c3ccn4Cc3ccc(F)cc3Cl)cc2[nH]1
viability at 24 h, 10 µM [1]: 84.5% | inhibition at 10 µM [2]: 78.5%

O=c1[nH]c2ccc(Nc3ncnc4c3cnn4Cc3cccc(F)c3Cl)cc2[nH]1
viability at 24 h, 10 µM [1]: 83.2% | inhibition at 10 µM [2]: 96.2%

O=c1[nH]c2ccc(Nc3ncnc4c3cnn4Cc3ccc(Cl)cc3F)cc2[nH]1
viability at 24 h, 10 µM [1]: 57.8% | inhibition [3]: inactive

O=c1[nH]c2ccc(Nc3ncnc4c3ccn4Cc3ccccc3)cc2[nH]1
viability at 24 h, 10 µM [1]: 99.7% | inhibition at 10 µM [2]: 76.6%

O=c1[nH]c2ccc(Nc3ncnc4c3ccn4Cc3ccc(Cl)cc3)cc2[nH]1
viability at 24 h, 10 µM [1]: 91.7% | inhibition at 10 µM [2]: 71.3%

CC1(C)S[C@@H]2[C@H](NC(=O)Cc3ccccc3)C(=O)N2[C@H]1C(=O)[O-].[Na+] [PENICILLIN G SODIUM]
log Pe [4]: -6.06

Cc1ccc(Cn2ccc3c(Nc4ccc5[nH]c(=O)[nH]c5c4)ncnc32)cc1
viability at 24 h, 10 µM [1]: 77.2% | inhibition [3]: inactive

O=C(Cn1ccc2c(Nc3ccc4[nH]c(=O)[nH]c4c3)ncnc21)c1ccccc1
viability at 24 h, 10 µM [1]: 74.3% | inhibition [3]: inactive

COc1cc(Cn2ccc3c(Nc4ccc5scnc5c4)ncnc32)cc(OC)c1
viability at 24 h, 10 µM [1]: 84.5% | inhibition [3]: inactive

Fc1ccc(Cn2ccc3c(Nc4ccc5cn[nH]c5c4)ncnc32)c(Cl)c1
viability at 24 h, 10 µM [1]: 76.2% | inhibition [3]: inactive

COc1cc([C@H]2OC[C@H]3[C@@H]2CO[C@@H]3c2cc(OC)c(O)c(OC)c2)cc(OC)c1O [SYRINGARESINOL]
viability at 24 h, 10 µM [1]: 91% | inhibition at 10 µM [2]: 75.6%

O=c1[nH]c2ccc(Nc3ncnc4c3ccn4Cc3cccc(F)c3Cl)cc2[nH]1
viability at 24 h, 10 µM [1]: 42.2% | inhibition [3]: inactive

O=C1Cc2cc(Nc3ncnc4c3ccn4Cc3ccc(F)cc3Cl)ccc2N1
viability at 24 h, 10 µM [1]: 56.6% | inhibition [3]: inactive

COc1cc(Cn2ccc3c(Nc4ccc5c(cnn5C)c4)ncnc32)cc(OC)c1
viability at 24 h, 10 µM [1]: 62.5% | inhibition at 10 µM [2]: 63.8%

Cc1cccc(Cn2ccc3c(Nc4ccc5[nH]c(=O)[nH]c5c4)ncnc32)c1
viability at 24 h, 10 µM [1]: 59% | inhibition [3]: inactive

O=c1[nH]c2ccc(Nc3ncnc4c3ccn4Cc3cccc4ccccc34)cc2[nH]1
viability at 24 h, 10 µM [1]: 59.7% | inhibition [3]: inactive

O=c1[nH]c2ccc(Nc3ncnc4c3ccn4Cc3ccc4c(c3)OCO4)cc2[nH]1
viability at 24 h, 10 µM [1]: 89.3% | inhibition at 10 µM [2]: 56.3%

COc1cccc(Cn2ccc3c(Nc4ccc5[nH]c(=O)[nH]c5c4)ncnc32)c1
viability at 24 h, 10 µM [1]: 88.5% | inhibition at 10 µM [2]: 63.8%

O=c1[nH]c2ccc(Nc3ncnc4c3ccn4Cc3ccc(F)c(Cl)c3)cc2[nH]1
viability at 24 h, 10 µM [1]: 57.3% | inhibition [3]: inactive

O=c1[nH]c2ccc(Nc3ncnc4c3ccn4Cc3ccc(F)cc3F)cc2[nH]1
viability at 24 h, 10 µM [1]: 98.2% | inhibition at 10 µM [2]: 54.3%
